17 compounds from patent US11155525B2 (Sanford Burnham Prebys Medical Discovery Institute, priority 2015, dated 2021) can be followed below.

In the test the target is T1, human apelin receptor (Homo sapiens, UniProt P35414).
T1 construct: host or cells: CHO cells
T1 sequence (P35414 1-380): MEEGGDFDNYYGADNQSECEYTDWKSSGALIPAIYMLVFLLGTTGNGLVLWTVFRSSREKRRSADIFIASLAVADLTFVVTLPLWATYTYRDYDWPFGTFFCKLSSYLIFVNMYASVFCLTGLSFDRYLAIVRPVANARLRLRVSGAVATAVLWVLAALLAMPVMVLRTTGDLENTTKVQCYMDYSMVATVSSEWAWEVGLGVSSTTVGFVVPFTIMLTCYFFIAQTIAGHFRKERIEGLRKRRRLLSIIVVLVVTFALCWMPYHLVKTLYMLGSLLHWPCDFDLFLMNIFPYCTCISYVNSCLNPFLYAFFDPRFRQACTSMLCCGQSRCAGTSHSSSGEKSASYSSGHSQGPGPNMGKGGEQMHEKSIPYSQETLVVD
Nature of the test: Measurement of apelin receptor agonist activity (cell-based assay determining the amount of intracellular cAMP). As to conditions: CHO cells stably expressing the human apelin receptor, Forskolin 10 μM, 30 minutes, 100% efficacy = [Pyr1]-apelin-13 0.300 μM, concentration giving 50% efficacy. The gist of the method:
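CHO cells stably expressing the receptor were treated for 30 min with compound ([…], 3-fold, 11 points; 0.3% DMSO) together with 10 μM forskolin. cAMP was measured by chemiluminescent lysate assay. Efficacy was scaled from forskolin alone (0%) to 0.300 μM [Pyr1]-apelin-13 plus forskolin (100%), and dose-response curves were fitted.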
The compound `COc1cccc(OC)c1-n1c(/C=C/C(=O)N2C[C@H](O)C[C@H]2C(=O)O)nnc1-c1ccc(C)o1` [Example 92, (4R)-1-{(2E)-3-[4-(2,6-Dimethoxyphenyl)-5-(5-methylfuran-2-yl)-4H-1,2,4-triazol-3-yl]prop-2-enoyl}-4-hydroxy-L-proline] registered a half-maximal effective concentration (EC50) of 166 nM.
`COC(=O)c1cccc(-c2nnc(-c3ccc(C)o3)n2-c2c(OC)cccc2OC)c1` [Example 45, Methyl 3-[4-(2,6-dimethoxyphenyl)-5-(5-methylfuran-2-yl)-4H-1,2,4-triazol-3-yl]benzoate] registered an EC50 of 1320 nM.
Then `COc1cccc(OC)c1-n1c(SCC(=O)O)nnc1-c1ccccc1` [Example 28, {[4-(2,6-Dimethoxyphenyl)-5-phenyl-4H-1,2,4-triazol-3-yl]sulfanyl}acetic acid], with 1420 nM; and `COC(=O)C(Sc1nnc(-c2ccc(C)o2)n1-c1c(OC)cccc1OC)c1ccccn1` (racemic) [Example 89, Methyl {[4-(2,6-dimethoxyphenyl)-5-(5-methylfuran-2-yl)-4H-1,2,4-triazol-3-yl]sulfanyl}(pyridin-2-yl)acetate], with 261 nM.
Next, `COC(=O)c1ccc(-c2nnc(-c3ccc(C)o3)n2-c2c(OC)cccc2OC)cc1` [Example 47, Methyl 4-[4-(2,6-dimethoxyphenyl)-5-(5-methylfuran-2-yl)-4H-1,2,4-triazol-3-yl]benzoate]: 419 nM; `COc1cccc(OC)c1-n1c(SCCCCC(=O)O)nnc1-c1ccc(C)o1` [Example 49, 5-{[4-(2,6-Dimethoxyphenyl)-5-(5-methylfuran-2-yl)-4H-1,2,4-triazol-3-yl]sulfanyl}pentanoic acid]: 393 nM.
As for `COc1cccc(OC)c1-n1c(SCc2nc(=O)o[nH]2)nnc1-c1ccc(C)o1` [Example 94, 3-({[4-(2,6-Dimethoxyphenyl)-5-(5-methylfuran-2-yl)-4H-1,2,4-triazol-3-yl]sulfanyl}methyl)-1,2,4-oxadiazol-5(2H)-one], a half-maximal response (EC50) required 71 nM.
In the case of `COc1cccc(OC)c1-n1c(CN)nnc1-c1ccc(C)o1` [Example 70, 1-[4-(2,6-Dimethoxyphenyl)-5-(5-methylfuran-2-yl)-4H-1,2,4-triazol-3-yl]methanamine], a half-maximal effect (EC50) was put at 384 nM.
Then `COC(=O)/C=C\c1nnc(-c2ccc(C)o2)n1-c1c(OC)cccc1OC` [Example 55, Methyl (2Z)-3-[4-(2,6-dimethoxyphenyl)-5-(5-methylfuran-2-yl)-4H-1,2,4-triazol-3-yl]prop-2-enoate], with 1920 nM; and `COc1cccc(OC)c1-n1c(SCc2nccs2)nnc1-c1ccc(C)o1` [Example 76, 4-(2,6-Dimethoxyphenyl)-3-(5-methylfuran-2-yl)-5-[(1,3-thiazol-2-ylmethyl)sulfanyl]-4H-1,2,4-triazole], with 158 nM.
Compound `COc1cccc(OC)c1-n1c(-c2ccc(C)o2)nnc1-c1ccccc1C(=O)O` [Example 59, 2-[4-(2,6-Dimethoxyphenyl)-5-(5-methylfuran-2-yl)-4H-1,2,4-triazol-3-yl]benzoic acid] yielded a half-maximal effective concentration (EC50) of 349 nM.
Next, `COc1cccc(OC)c1-n1c(OCC(=O)O)nnc1-c1ccc(C)o1` [Example 88, {[4-(2,6-Dimethoxyphenyl)-5-(5-methylfuran-2-yl)-4H-1,2,4-triazol-3-yl]oxy}acetic acid]: 35 nM.
Next, `CCc1nnc(-c2ccc(C)o2)n1-c1c(OC)cccc1OC` [Example 17, 4-(2,6-Dimethoxyphenyl)-3-ethyl-5-(5-methylfuran-2-yl)-4H-1,2,4-triazole]: 1410 nM; `COc1cccc(OC)c1-n1c(SCC#N)nnc1-c1ccc(C)o1` [Example 84, {[4-(2,6-Dimethoxyphenyl)-5-(5-methylfuran-2-yl)-4H-1,2,4-triazol-3-yl]sulfanyl}acetonitrile]: 267 nM.
Next, `COC(=O)[C@@H]1CCCN1C(=O)/C=C/c1nnc(-c2ccc(C)o2)n1-c1c(OC)cccc1OC` [Example 90, Methyl 1-{(2E)-3-[4-(2,6-dimethoxyphenyl)-5-(5-methylfuran-2-yl)-4H-1,2,4-triazol-3-yl]prop-2-enoyl}-L-prolinate]: 503 nM; `COc1cccc(OC)c1-n1c(CNC(=O)c2ccc(C)cc2)nnc1-c1ccc(C)o1` [Example 99, N-{[4-(2,6-Dimethoxyphenyl)-5-(5-methylfuran-2-yl)-4H-1,2,4-triazol-3-yl]methyl}-4-methylbenzamide]: 338 nM; `CCc1cccc(CC)c1-n1c(SCC(=O)O)nnc1-c1ccc(C)o1` [Example 31, {[4-(2,6-Diethylphenyl)-5-(5-methylfuran-2-yl)-4H-1,2,4-triazol-3-yl]sulfanyl}acetic acid]: 174 nM.
